Assay results taken from patent US12508323B2, “Method of treatment of colorectal, breast and lung cancer with metal containing immune agonist complexes” (HANGZHOU XINGAO BIOTECHNOLOGY CO., LTD., priority 2020, dated 2025).

Columns and labels:
[1] = tested on: breast cancer cell line 4T1; test: Subcutaneous transplantation tumor model, 4T1 in BALB/C mice; assay type: in vivo; conditions: i.p. 10 mg/kg (nanobody 200 μg/mouse) once a day for 21 days
Method: Specific pathogen free (SPF)-grade BALB/C and C57BL/6 male mice, aged 7-8 weeks and weighing 20-22 g, were purchased from Shanghai Slac Laboratory Animal Co., Ltd (Laboratory animal quality certificate number: SCXK (Shanghai)2007-0005.
Mice were injected intraperitoneally with the immune agonist or complex with a dose of 10 mg/kg, or each injected intraperitoneally with 200 μg of the nanobody.
(§1) Administration route: intraperitoneal injection.
(§2) Frequency: once a day for consecutive 21 days.
Cancer cells were cultured, passaged, collected at the logarithmic phase of cells, and prepared into a cell suspension at a concentration of (1.0×10^7) per ml. Mice were injected with 0.2 ml of the cell suspension at the axilla of the right forelimb (cell number 2.0×10^6 cells/each), and were tumorigenic in about 8 days. These mice were randomly divided into 10 groups equally, namely, group A: negative control group (saline group), group B: positive control (cGAMP) group (dose: 10 mg/kg), group C: MncGAMP group (dose: 10 mg/kg), group D: anti-PD-L1 nanobody group, group E: anti-CD47 nanobody group, group F: anti-TfR1 nanobody group, group G: complex V group (dose: 10 mg/kg), group H: complex VI group (dose: 10 mg/kg), group I: complex IX group (dose: 10 mg/kg), and group J: complex VIII group (10 mg/kg). […]
The data were expressed as ×±s and processed by SPSS10.0 software. […]

[2] = tested on: murine breast cancer cell line 4T1-luc; test: Anti-metastasis of murine breast cancer 4T1-luc, in vivo optical imaging; conditions: 4T1-luc in BALB/C mice, i.p. 10 mg/kg (nanobody 200 μg/mouse) once a day, sites of metastasis
Method: Specific pathogen free (SPF)-grade BALB/C male mice, aged 7-8 weeks and weighing 20-22 g, were purchased from Shanghai Slac Laboratory Animal Co., Ltd (Laboratory animal quality certificate number: SCXK (Shanghai)2007-0005.
Mice were injected intraperitoneally with the immune agonist complex or MncGAMP with a dose of 10 mg/kg, or each injected intraperitoneally with 200 μg of the nanobody.
as §1, §2
Used herein was murine breast cancer cell line 4T1-luc (luciferase labeled tumor cells), which was provided by medical department of Zhejiang University School. The 4T1-luc cell line in BALB/C mice had similar growth and metastatic properties to breast tumors in humans, which was an animal model for […] breast cancer in humans. The 4T1-luc cell line spontaneously produced highly metastatic tumors that metastasize to the lung, liver, lymph nodes, and brain, while forming the primary site at the injection site. Luciferase was a general term for a class of enzymes in living organisms that catalyze the oxidative luminescence of luciferin or firefly aldehyde, which was derived from organisms naturally capable of luminescence.
Cancer cells were cultured, passaged, collected at the logarithmic phase of cells, and prepared into a cell suspension at a concentration of (1.0×10^7) per ml. Mice were injected with 0.2 ml of the cell suspension at the axilla of the right forelimb (2.0×10^6 cells/each), and were injected with drugs the day after inoculation with breast cancer cells. […]
Metastasis of murine breast cancer in mice was detected using a small animal in vivo optical imaging system (Perkin Elmer, IVIS Lumina XRMS Series III) on days 5, 10, 20, and 30 after drug administration, respectively, which was done at Shanghai Medical College of Fudan University.

[3] = tested on: mice with localized cerebral ischemia; test: Local cerebral ischemia model (wire bolus method), Zea Longa 5-point behavioral score; assay type: in vivo; conditions: ICR mice, 10 mg/kg i.p., Zea Longa 5-point scale (0 normal to 4)
Text: Healthy male ICR mice, weighing 18-20 g, were purchased from Shanghai Slaughter Laboratory Animal Co (quality certificate number (SCXK(SH) 2007-0005)) and raised in a cleaning experimental animal room.
Local cerebral ischemia model was made by wire bolus method to verify the therapeutic effects of immune agonist complexes on cerebral ischemic brain diseases in experimental animals.
Experimental mice were anesthetized with 10% chloral hydrate intraperitoneally, and a median cervical incision was made to separate and ligate the proximal segment of the right common carotid artery, the carotid artery and branch vessels thereof. The right internal carotid artery was isolated, the pterygopalatine artery was isolated downward along the internal carotid artery, and the root was ligated for this branch. The proximal end of the internal carotid was provided with a prepared wire, and the distal end of the internal carotid was provided with an artery clip. […] Behavioral scoring was performed after surgery, and the scoring was single-blinded with reference to the Zea Longa 5-point scale, which was scored as follows: 0, normal mice with no signs of neurological injury; 1, unable to fully extend the contralateral front paw; 2, turning in a circle to the outside; 3, relatively measured tipping; and 4, unable to walk spontaneously, and loss of consciousness injury. […]

In the case of `Nc1nc(=O)c2ncn(C3OC4COP(=O)(O)OC5C(COP(=O)(O)OC3C4O)OC(n3cnc4c(N)ncnc43)C5O)c2[nH]1` (stereo not shown) [cGAMP, 2′3′-cGAMP], the “Average tumor weight” value ([1]; n = 10, mean ± SD) was 0.862 ± 0.156 g, the “Average tumor inhibition rate (%)” value ([1]; vs negative control tumor weight) was 61.9% and the “Metastasis of breast cancer, Day 5” value ([2]; day 5 after drug administration) was “No”. For the same compound, the “Metastasis of breast cancer, Day 10” value ([2]; day 10 after drug administration) was “No”, the “Metastasis of breast cancer, Day 20” value ([2]; day 20 after drug administration) was “No” and the “Behavioral scores (24 hours after surgery)” value [3] was 2.26 ± 0.40. For the same compound, the “Behavioral scores (7 days after surgery)” value [3] was 1.65 ± 0.34.
